# In US11464749B2, “Bismuth-thiol compositions and methods of use” (Microbion Corporation, priority 2018, dated 2022):
# Values joined by “and” are separate entries in the source; they are usually repeats but may differ in a detail not shown here. Equal entries are not always repeated. Where two headings read alike, the source gives them in different places.
# Assays:
# [1] = Rat nose-only inhalation study: whole blood and lung BisEDT; assay type: in vivo, F344 rats; conditions: single inhalation dose 47 μg/kg, 8 hr
# Experimental: Inhalation Exposure: The initial exposure of BisEDT (Bismuth-1,2-ethanedithiol) was formulated as […] at 100 mg/mL in suspension in 0.5% TWEEN 80®, 10 mM sodium phosphate, pH 7.4, in NaCl (adjusted to approximately 300 mOsm). Aerosols were generated with a commercial compressed air jet nebulizer, PAD LC PLUS®, operated with an inlet pressure of 20 psi.
# Detailed gross necropsies were performed on all animals (found dead, moribund, or scheduled necropsy) and consisted of a complete external and internal examination including body orifices and cranial, thoracic, and abdominal organs and tissues. All gross findings will be recorded in descriptive terms. […] Lungs collected and weighed.
# [2] = Face mask inhalation in beagle dogs: hematology; assay type: in vivo; conditions: inhalation Day 0 and Day 7, successive samplings
# Experimental: (§1) Once adequately conditioned to the restraint device and face-masks, the animals are individually exposed to the test article aerosols. Animals receive a single face-mask inhalation exposure in a ramp study design to test article aerosols for up to 60 min. Animal observations during and post exposure determine the tolerance of inhaled BisEDT aerosols.
# (§2) Group 1 (vehicle) are exposed to a vehicle atmosphere for 30 minutes. Group 2 (50 μg/kg) are exposed to BisEDT for 30 minutes. Target concentrations and exposure durations for Groups 3-5 are based on the presence of any toxicity via clinical observations or gross necropsy findings. In each of Groups 3-5, if no adverse clinical signs of toxicity are observed, the next groups' exposure will be conducted at a higher target dose. If adverse clinical signs of toxicity are observed, the next groups' exposure will be conducted at a lower target dose. This approach is repeated for all BisEDT doses. The final documented exposure duration is the maximum tolerated dose or the maximum feasible dose.
# The aerosol generation system couples a commercially available compressed air jet nebulizer to a chamber that allows the aerosols to transition to the animals. […]
# Hematology samples are analyzed by automated (ADVIA™ 120 Hematology System, Siemens Medical Solutions Diagnostics, Tarrytown, N.Y.) analyses. Disposition will be recorded on the sample processing form.
# [3] = Face mask inhalation in beagle dogs: clinical chemistry; assay type: in vivo; conditions: sampling times not given
# Experimental: as §1, §2
# The aerosol generation system couples a commercially available compressed air jet nebulizer to a chamber that allows the aerosols to transition to the animals. Exposure is by face-mask inhalation per the study design above. […] Formulation concentration and exposure duration are modulated to achieve target doses if necessary.
# Blood Collections and Bioanalytical Analysis: Blood are collected for pharmacokinetic (PK) analysis prior to exposure, then at 4 hr (±5 min) post exposure, and again on Day 1, Day 2, Day 7 (pre- and 4 hr (±5 min)-post exposure), Day 8, Day 9, Day 10, Day 11, Day 12, Day 13, and Day 14. A total of 0.25 mL is collected at each timepoint. No PK blood is collected from the vehicle control (Group 1) animals; only animals exposed to BisEDT have blood collected for PK analysis. Collected samples are flash frozen without processing for shipment to Medpace for bioanalytical analysis. Additional blood is collected from all animals in all groups for hematology (1 mL) and clinical chemistry (1 mL) at baseline, Day 7 (pre-exposure), and again at euthanasia. Blood (2-2 mL) is collected from all animals at necropsy for coagulation analysis (d-Dimer, fibrinogen, PT, and PTT).
# For clinical chemistry analyses, whole blood (1 mL) is placed into serum separator or clot tube and […] by centrifugation at a minimum of 1300 g at 2 to 8° C. for 10 (±1) min. Plasma samples are stored at −70 to −90° C. until analysis.
# Clinical chemistry samples are analyzed on a Hitachi Modular Analytics Clinical Chemistry System (Roche Diagnostics, Indianapolis, Ind.).
# [4] = Particle size distribution of exposure aerosols (In-Tox Mercer Impactor); conditions: rat efficacy study exposure atmospheres
# [5] = test system: vancomycin-intermediate Staphylococcus aureus (VISA); test: Broth microdilution MIC (Example 12); conditions: Staphylococcus aureus
# Burkholderia spp. = conditions: initial MIC testing
# [6] = Grp 1 (1001 Male, 1002 Female, Avg), 3 lines per subject
# [7] = Grp 2 (2001 Male, 2002 Female, Avg), 3 lines per subject
# [8] = Grp 3 (3001 Male, 3002 Female, Avg), 3 lines per subject
# [9] = Grp 4 (4001 Male, 4004 Female, Avg; 4002 Female, 4003 Male), 2-3 lines per subject
structure (smiles),measurement,setting,value
"C1C[S][Bi]([S]CC[S][Bi]2[S]CC[S]2)[S]1 [BisEDT, bismuth-1,2-ethanedithiol]","Mean BisEDT Conc, whole blood",[1],114 ng/mL
same,LUC,"[2]; dog Group 2, lung deposited 55-56 ug/kg, lines = animal 2001, 2002 or Grp Avg",0.01 ^3/uL and 0.02 ^3/uL
same,LUC,"[2]; dog Group 4, lung deposited 176-197 ug/kg, lines = animal 4001-4004 or Grp Avg",0.01 ^3/uL and 0.02 ^3/uL
same,AGR,[3]; [6],2.6 and 1.9 (2×) and 2.1 (2×)
same,ALB,[3]; [6],3.7 g/dL
same,ALPK,[3]; [6],125 IU/L and 120 IU/L and 248 IU/L and 243 IU/L and 235 IU/L and 91 IU/L
same,ALT,[3]; [6],26 IU/L and 27 IU/L and 29 IU/L and 21 IU/L
same,AST,[3]; [6],33 IU/L (2×) and 29 IU/L (2×) and 27 IU/L
same,BUN,[3]; [6],13 mg/dL (2×) and 17 mg/dL
same,CA2,[3]; [6],10.3 mg/dL
same,CHOL,[3]; [6],129 mg/dL and 116 mg/dL and 132 mg/dL and 130 mg/dL and 107 mg/dL
same,CREA,[3]; [6],0.5 mg/dL
same,GLOB,[3]; [6],1.4 g/dL and 1.5 g/dL and 1.8 g/dL
same,GLUC,[3]; [6],88 mg/dL and 89 mg/dL and 90 mg/dL and 78 mg/dL and 92 mg/dL (2×)
same,K,[3]; [6],4.5 mmo/L and 4.7 mmo/L (2×) and 4.2 mmo/L and 5.1 mmo/L
same,Na,[3]; [6],150 mmo/L
same,TP,[3]; [6],5.5 g/dL and 4.9 g/dL
same,TRIG,[3]; [6],32 mg/dL and 29 mg/dL and 53 mg/dL and 39 mg/dL and 38 mg/dL and 37 mg/dL
same,AGR,[3]; [7],1.9 and 2.0 and 1.7 and 2.3 (2×)
same,ALB,[3]; [7],3.4 g/dL and 3.7 g/dL
same,ALT,[3]; [7],22 IU/L (3×) and 18 IU/L and 29 IU/L and 27 IU/L
same,AST,[3]; [7],48 IU/L and 36 IU/L (2×) and 35 IU/L and 41 IU/L and 38 IU/L
same,BUN,[3]; [7],12 mg/dL and 16 mg/dL and 14 mg/dL (2×)
same,CHOL,[3]; [7],114 mg/dL
same,Cl,[3]; [7],108 mmo/L and 110 mmo/L and 114 mmo/L
same,GLOB,[3]; [7],2.0 g/dL and 1.9 g/dL and 1.6 g/dL (2×)
same,GLUC,[3]; [7],91 mg/dL and 97 mg/dL and 95 mg/dL and 89 mg/dL
same,K,[3]; [7],4.5 mmo/L and 4.9 mmo/L and 5.0 mmo/L and 5.2 mmo/L and 4.6 mmo/L
same,TP,[3]; [7],5.0 g/dL and 5.5 g/dL and 5.3 g/dL
same,TRIG,[3]; [7],66 mg/dL and 80 mg/dL and 63 mg/dL and 38 mg/dL and 39 mg/dL and 31 mg/dL
same,AGR,[3]; [8],2.0 (2×) and 2.1 and 2.3 and 1.8 and 2.6
same,ALB,[3]; [8],3.2 g/dL and 3.7 g/dL
same,ALPK,[3]; [8],90 IU/L
same,ALT,[3]; [8],26 IU/L and 24 IU/L and 28 IU/L and 20 IU/L (2×)
same,AST,[3]; [8],33 IU/L and 28 IU/L
same,BUN,[3]; [8],13 mg/dL and 17 mg/dL and 33 mg/dL and 11 mg/dL and 25 mg/dL
same,CHOL,[3]; [8],100 mg/dL
same,CREA,[3]; [8],0.7 mg/dL and 0.5 mg/dL and 0.9 mg/dL
same,Cl,[3]; [8],110 mmo/L
same,GLOB,[3]; [8],1.7 g/dL and 2.0 g/dL and 1.4 g/dL
same,GLUC,[3]; [8],100 mg/dL and 88 mg/dL and 51 mg/dL and 112 mg/dL and 90 mg/dL and 65 mg/dL
same,K,[3]; [8],4.7 mmo/L and 5.8 mmo/L and 5.5 mmo/L and 5.3 mmo/L
same,TP,[3]; [8],4.8 g/dL and 5.0 g/dL (2×) and 5.5 g/dL
same,TRIG,[3]; [8],26 mg/dL and 34 mg/dL (2×) and 52 mg/dL and 43 mg/dL and 58 mg/dL
same,AGR,[3]; [9],2.3 and 2.0 and 1.7 (2×) and 1.6
same,ALB,[3]; [9],3.6 g/dL and 3.2 g/dL
same,ALT,[3]; [9],27 IU/L (2×) and 25 IU/L and 24 IU/L and 20 IU/L and 21 IU/L and 40 IU/L and 23 IU/L
same,AST,[3]; [9],32 IU/L (2×) and 34 IU/L and 38 IU/L and 31 IU/L and 35 IU/L and 30 IU/L
same,BUN,[3]; [9],11 mg/dL (2×) and 16 mg/dL and 15 mg/dL
same,CHOL,[3]; [9],147 mg/dL and 125 mg/dL and 124 mg/dL and 182 mg/dL and 169 mg/dL and 176 mg/dL
same,CREA,[3]; [9],0.5 mg/dL
same,GLOB,[3]; [9],1.6 g/dL and 2.1 g/dL (2×) and 2.0 g/dL
same,GLUC,[3]; [9],82 mg/dL and 86 mg/dL and 70 mg/dL and 96 mg/dL and 79 mg/dL and 109 mg/dL and 81 mg/dL
same,K,[3]; [9],4.8 mmo/L and 4.6 mmo/L and 5.1 mmo/L and 4.3 mmo/L and 5.3 mmo/L (2×) and 4.9 mmo/L (2×)
same,TP,[3]; [9],4.9 g/dL and 5.1 g/dL and 5.6 g/dL and 5.5 g/dL and 5.4 g/dL (2×)
same,TRIG,[3]; [9],49 mg/dL (2×) and 46 mg/dL and 40 mg/dL and 53 mg/dL (2×) and 44 mg/dL and 34 mg/dL and 41 mg/dL and 55 mg/dL
same,MMAD of exposure aerosol,[4],1.54 μm
"CC(S)C(C)S.[Bi] (centres unmarked) [BisBDT, bismuth-2,3-butanedithiol]",MIC,[5]; NRS1 / VISA,0.12 µg/mL
same,MIC,[5]; NRS2 / VISA,≤ 0.06 µg/mL
same,MIC,[5]; NRS3 / VISA,0.25 µg/mL
same,MIC,[5]; NRS4 / VISA,0.25 µg/mL
same,MIC,[5]; NRS13 / VISA,0.12 µg/mL
same,MIC,[5]; NRS18 / VISA,0.25 µg/mL
same,MIC,[5]; NRS22 / VISA,0.25 µg/mL
same,MIC,[5]; NRS24 / VISA,1 µg/mL
same,MIC,[5]; NRS27 / VISA,0.25 µg/mL
C[C@@H](O)[C@H]1C(=O)N2C(C(=O)O)=C(S[C@@H]3CN[C@H](C(=O)N(C)C)C3)[C@H](C)[C@H]12 [MEM],MIC,Burkholderia spp.; B. multivorans isolate 1580 (CIP-R),2 µg/mL
same,MIC,Burkholderia spp.; B. multivorans isolate 1791,4 µg/mL
same,MIC,"Burkholderia spp.; B. multivorans isolate 1795 (MEM-I, CIP-R)",8 µg/mL
same,MIC,Burkholderia spp.; B. multivorans isolate 5665 (CIP-I),2 µg/mL
same,MIC,Burkholderia spp.; B. multivorans isolate 8952 (CIP-I),2 µg/mL
